For data set [1], the system named is Mx1 RNA in murine L929 cells. Kind of data set: Mx1 RNA induction in vitro in L929 cells (TaqMan RT-PCR). It counts as cell-based. Here is the method:
FIG. 5 illustrates Mx1 RNA induction in vitro (in L929 cells) by mIFN-β. L929 cells were seeded at 5×10^5 cells in 6 well plates and stimulated with increasing amounts of purified recombinant mIFN-β protein. Four hours after treatment the cells were harvested, RNA isolated, and Mx1 RNA quantitated by TaqMan analysis. Mx1 RNA expression is plotted as the fold increase relative to GAPDH RNA.
• A. Development of mIFN-β Biomarkers: For higher sensitivity in detection of murine IFN-β (mIFN-β) activity in vivo, biomarkers for mIFN-β activity were identified in mice after injection of mIFN-β protein or mIFN-β encoded gene therapy vectors. […] In the present study, the expression of the MxA mouse homologue, Mx1, (see e.g., Hug, H et al. Mol Cell Biol 8: 3065-79; Pavlovic, J (1993) Ciba Found Symp 176: 233-43) isolated from murine peripheral blood monocytes (PBMC's) was used to detect the presence of biologically active mIFN-β. • A quantitative PCR/RT-PCR assay was developed to quantitate the levels of Mx1 mRNA in murine PBMC's. […] The samples were analyzed with an Mx1-specific probe/primer combination. Mx1 expression was normalized to GAPDH expression measured in parallel using a standard assay from ABI. • The assay was validated in vitro by examining Mx1 RNA induction in murine L929 cells treated with purified recombinant mIFN-β protein (FIG. 5). […]
Background: Quantitative PCR measures a nucleic acid by following its amplification.

In a further data set the test system is luciferase reporter gene. The experiment in a line: Luciferase reporter gene assay for activity of purified mIFN-β protein. It counts as cell-based. How it is done:
Specifically, the gene encoding mIFN-β was cloned into a pCEP4 expression vector (Invitrogen). The expression plasmid encoding mIFN-β was transiently transfected into 293E cells (Edge Biosystems) using X-tremeGene Ro-1539 Transfection Reagent (Roche). Murine IFN-β protein was purified from the medium by ion-exchange chromatography and by hydrophobic-interaction chromatography. The product was sialyzed and concentrated against dilution buffer (50 mM sodium acetate, pH 5.5, 150 mM sodium chloride, and 5% polypropylene glycol) and sterile filtered. Aliquots of the purified protein were stored at −80° C. The activity of the purified protein was assessed using a luciferase reporter gene assay (Hardy et al. (2001) Blood 97:473-482), using a commercial mIFN-β reference standard from Access Biomedical (San Diego, Calif.). The specific activity of the purified protein was 2×10^8 units/mg.
The positive control used for this study was Prednisolone, 2.5 mg/kg, (Sigma, St. Louis) administered by IP injection twice daily, beginning on day 1, until the end of the study. For mIFN-β protein delivery, the mice were given SC injections of purified recombinant mIFN-β protein every other day, starting on day 1 of the study (100,000 or 300,000 IU per animal per injection in 100 ul vehicle buffer). […]
On the technique in general: In a reporter assay the amount or activity of a reporter protein is the signal.

The test system of the next data set is Mx1 RNA. Kind of data set: Mx1 RNA induction in PBMCs of treated mice (quantitative RT-PCR, normalized to GAPDH). It counts as in vivo.

The record followed here is patent US20080076729A1, “Interferon-beta gene therapy using an improved, regulated expression system” (Schering Aktiengesellachaft, priority 2005, published 2008).

Like-named read-outs stand apart in the source and are kept apart here.

Regarding “mIFN-β: purified recombinant murine interferon-beta protein”, the “EC50 of Mx1 RNA induction” value in data set [1] (4 hours treatment) is listed as “approximately 50 pg/ml”. In addition, in data set [1] (relative to GAPDH), the “increase in the level of Mx1 RNA” value was 100 fold. Besides, in the data set on luciferase reporter gene, the “specific activity of the purified protein” value is reported as 2×10^8 international units (IU) per mg. The “specific activity of the purified protein” value with luciferase reporter gene (commercial mIFN-β reference standard) is on record as 2×10^8 units/mg. In addition, the “time after injection beyond which no Mx1 RNA levels above background were detected” value in the data set with Mx1 RNA (bolus protein) was 12 h. In the data set with Mx1 RNA (bolus protein 15, 150 or 500 ng, i.v. or i.m.), the “Induction of Mx1 RNA expression relative to vehicle injected mice” value is 25- to 50 fold. For the same substance, in the data set on Mx1 RNA (bolus protein i.v. or i.m.), the “Tmax of induction of all three biomarkers (Mx1, IP-10, JE)” value is on record as “approximately 2 hours”; the “time after injection of highest Mx1 expression levels” value worked out at 2 h; the “time post-injection within which biomarker levels dropped to background” value fell in the range of 12 to 24 h. Further, in the data set with Mx1 RNA (i.v. injection, diminished at 500 ng), the “dose giving highest Mx1 induction” value is listed as 150 ng.
